{
  "source": "patent US10723750B2",
  "about": "“Sphingamide compounds and methods for binding iNKT cells” (La Jolla Institute for Allergy and Immunology, priority 2015, dated 2020)",
  "key": {"[1]": {"tested_on": "iNKT cells in C57BL/6 mice", "assay": "Sphingamide competition with OCH in vivo, serum IL-4 and IFN-γ", "design": "species or system mouse", "conditions": "FIG. 9", "description": "Cytokine levels were measured from blood serum using ELISA after 4 hours (IL-4) and 16 hours (IFN-γ)."}, "[2]": {"tested_on": "murine iNKT hybridoma cells", "assay": "Sphingamide competition with OCH in vitro, APC-free recombinant mCD1d (IL-2 ELISA)", "assay_type": "cell-based, mouse", "conditions": "JG168 1-20 ug/ml mixed with 1 ug/ml OCH, FIG. 8", "description": "For in vitro stimulation, murine iNKT hybridoma cells at 5×10^4 cells/well in 96-well plates were incubated with CD1d (loaded with OCH and the competing sphingamide) and levels of iNKT cell activation was monitored by measuring murine IL-2 secretion by ELISA."}, "[3]": {"conditions": "cited from earlier work"}, "[4]": {"tested_on": "murine iNKT hybridoma cells", "assay": "iNKT hybridoma activation, APC-free assay with recombinant mCD1d (IL-2 ELISA)", "assay_type": "cell-based, mouse", "conditions": "FIG. 5A/5D", "description": "(§1) First, the present sphingamide compounds were tested to determine whether they activated iNKT cell hybridomas when the sphingamide was presented to the iNKT cell TCR by (a) an antigen presenting-cell (APC) free assay which uses recombinant mCD1d, (b) an A20 B-cell (an antigen presenting cell) expressing the wild-type (WT) mCD1d, or (c) an A20 B-cell expressing a tail-deleted mCD1d. The tail deleted mCD1d lacks the “YQDI” amino acid sorting motif required for routing CD1d to endosomes (for example, amino acid residues 314-317 of SEQ ID NO: 2 would be missing).\n(§2) For in vitro stimulation, murine iNKT hybridoma cells at 5×10^4 cells/well in 96-well plates were stimulated with the 10^5 cells/well glycolipid pulsed BMDCs in cDMEM for 4, 16 or 24 hours at 37° C. with 0.05 μg/ml, 0.1 μg/ml, 0.5 μg/ml, 1 μg/ml, 2 μg/ml, or 5 μg/ml of lipid, and levels of murine IL-2 secretion were determined by ELISA.\nThe present sphingamide, or amide-lacking versions were tested to determine whether they activated iNKT cell hybridomas when the sphingamide was presented to the iNKT cell TCR by an antigen presenting-cell (APC) free assay which uses recombinant mCD1d. […]\nFor in vitro stimulation, murine iNKT hybridoma cells at 5×10^4 cells/well were added to the wells containing CD1d and incubated in the presence of 5% CO2 at 37° C. over night. Levels of murine IL-2 secretion were determined by ELISA."}, "[5]": {"tested_on": "murine iNKT hybridoma cells", "assay": "iNKT hybridoma activation, A20 B cells expressing tail-deleted mCD1d (IL-2 ELISA)", "assay_type": "cell-based, mouse", "conditions": "tail-deleted mCD1d A20 B cell, FIG. 5C", "description": "as §1, §2\n(§3) Tail-deleted mCD1d cannot recycle back into the cell, as the binding site for a required lipid loading factor has been deleted. (see Jin et al., Immunity 2009, 30(6):888-898 for a discussion of the model)."}, "[6]": {"tested_on": "murine iNKT hybridoma cells", "assay": "iNKT hybridoma activation, A20 B cells expressing wild-type mCD1d (IL-2 ELISA)", "assay_type": "cell-based, mouse", "conditions": "A20/mCD1d wt, FIG. 5B", "description": "as §1, §2, §3"}, "[7]": {"tested_on": "iNKT cells in C57BL/6 mice", "assay": "In vivo activation of iNKT cells, serum cytokines by ELISA", "design": "species or system mouse"}, "[8]": {"tested_on": "Vα24+ human NKT cells", "assay": "Activation of human iNKT cells in vitro, GM-CSF release (sandwich ELISA)", "assay_type": "cell-based", "conditions": "glycolipid-pulsed PBMCs with Vα24+ human NKT cells, 24 h, FIG. 7", "excerpt": "The isolation and expansion of human Vα24^+ NKT cell lines has been published previously (Rogers, P. R., Matsumoto, A., Naidenko, O., Kronenberg, M., Mikayama, T., and Kato, S. (2004) Expansion of human Vα24^+ NKT cells by repeated stimulation with KRN7000. J. Immunol. Methods 285, 197-214). Human donor peripheral blood mononuclear cells (PBMCs, 1-1.5×10^6/ml) were isolated and cultured in RPMI 1640 medium (Invitrogen) supplemented with 10% (v/v) FBS and 1% (v/v) Pen/Strep/glutamine (10,000 units of penicillin, 10 mg of streptomycin, 29.2 mg/ml L-glutamine; Invitrogen), and cultures were expanded by weekly re-stimulation with αGalCer-pulsed, irradiated PBMC and recombinant human IL-2.\nPBMCs (1×10^5 per well) were pulsed with glycolipids, seeded in 96-well plates, and cultured in the presence of 5×10^4 Vα24^+ human NKT cells for 24 h. GM-CSF release was evaluated in a sandwich ELISA following the manufacturer's instructions (R&D Systems)."}},
  "data": [
    {"smiles": "CCCCCCCC(=O)N[C@@H](CO[C@H]1OC(CO)[C@H](O)C(O)[C@@H]1O)[C@H](O)[C@H](O)CCCC(=O)NCCCCCCc1ccccc1", "note": "(stereo partly drawn) [JG168]", "values": [
      {"measurement": "activation of iNKT cells in vivo", "setting": "[1]; 20 μg JG168 alone i.v.", "result": "did not activate iNKT cells in vivo"},
      {"measurement": "competition with OCH (serum IL-4 and IFN-γ)", "setting": "[1]; 1, 5 or 20 μg JG168 + 1 μg OCH i.v.", "result": "no competition was observed"},
      {"measurement": "competition with OCH (IL-2 secretion)", "setting": "[2]", "result": "No competition was observed"}
    ]},
    {"smiles": "CCCCCCCCCCCCCCCCCCCCCCCC(=O)N[C@@H](CO[C@H]1OC(CO)[C@H](O)C(O)C1O)[C@H](O)[C@H](O)CCCCC", "note": "(stereo partly drawn) [OCH]", "values": [
      {"measurement": "solubility in aqueous solutions", "setting": "[3]", "result": "poorly soluble"}
    ]},
    {"smiles": "CCCCCCCCCCCCCC[C@@H](O)[C@@H](O)[C@H](CO[C@H]1OC(CO)[C@H](O)C(O)C1O)NC(=O)CCCCCCC", "note": "(stereo partly drawn) [PBS-25]", "values": [
      {"measurement": "IL-2 secretion by iNKT hybridoma", "setting": "[4]", "result": "significant amount of IL-2"},
      {"measurement": "solubility in aqueous solutions", "setting": "[3]", "result": "readily soluble"},
      {"measurement": "IL-2 secretion by iNKT hybridoma", "setting": "[5]", "result": "significant amount of IL-2"},
      {"measurement": "IL-2 secretion by iNKT hybridoma", "setting": "[6]", "result": "significant amount of IL-2"}
    ]},
    {"smiles": "CCCCCCCCCCCCCCCCCCCCCCCCCC(=O)N[C@@H](CO[C@H]1O[C@H](CO)[C@H](O)[C@H](O)[C@H]1O)[C@H](O)[C@H](O)CCCCCCCCCCCCCC", "note": "[α-GalCer, N-[(2S,3S,4R)-3,4-Dihydroxy-1-[(2S,3R,4S,5R,6R)-3,4,5-trihydroxy-6-(hydroxymethyl)oxan-2-yl]oxyoctadecan-2-yl]hexacosanamide]", "values": [
      {"measurement": "cytokines produced in vivo (IL-4 / IFN-γ)", "setting": "[7]; 1 μg glycolipid injected i.v., FIG. 12", "result": "makes both"},
      {"measurement": "serum IL-4", "setting": "[7]; C57BL/6 mice, 5 μg glycolipid i.v., 4 hours", "result": "significant amounts"},
      {"measurement": "serum IFN-γ", "setting": "[7]; C57BL/6 mice, 5 μg glycolipid i.v., 16 hours", "result": "significant amounts"},
      {"measurement": "solubility in aqueous solutions", "setting": "[3]", "result": "poorly soluble"},
      {"measurement": "IL-2 secretion by iNKT hybridoma", "setting": "[5]", "result": "did not stimulate IL-2 production"},
      {"measurement": "IL-2 secretion by iNKT hybridoma", "setting": "[6]", "result": "stimulated the secretion of IL-2"},
      {"measurement": "GM-CSF secretion", "setting": "[8]", "result": "significant secretion of GMCSF at all doses"}
    ]}
  ]
}
